Target: Na(+)/dicarboxylate cotransporter 3 (Homo sapiens) (UniProt Q8WWT9)
Assay: NaDC3 cotransporter activation by substrates – membrane potential dye, HEK-293 overexpressing cells, dose response (AID 1794820)
Conditions: HEK-293 SLC13A3 OE, FLIPR membrane potential dye

Chain of Na(+)/dicarboxylate cotransporter 3 (Homo sapiens) (Q8WWT9 whole entry, looked up): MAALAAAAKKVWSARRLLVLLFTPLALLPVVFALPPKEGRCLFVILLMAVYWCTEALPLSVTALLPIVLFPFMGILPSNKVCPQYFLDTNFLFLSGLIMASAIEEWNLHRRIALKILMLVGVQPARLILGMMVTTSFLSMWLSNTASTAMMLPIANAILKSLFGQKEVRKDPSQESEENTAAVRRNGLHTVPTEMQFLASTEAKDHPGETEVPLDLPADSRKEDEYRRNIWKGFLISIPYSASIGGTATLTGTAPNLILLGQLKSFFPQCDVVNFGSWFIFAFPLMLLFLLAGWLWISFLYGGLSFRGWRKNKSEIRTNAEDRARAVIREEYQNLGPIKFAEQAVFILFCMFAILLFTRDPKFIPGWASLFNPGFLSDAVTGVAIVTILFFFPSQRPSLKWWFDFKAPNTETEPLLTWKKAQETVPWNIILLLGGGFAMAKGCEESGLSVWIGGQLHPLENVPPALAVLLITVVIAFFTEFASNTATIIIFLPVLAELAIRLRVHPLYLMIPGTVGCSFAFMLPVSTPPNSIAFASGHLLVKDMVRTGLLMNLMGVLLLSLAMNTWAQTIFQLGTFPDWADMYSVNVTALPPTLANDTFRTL

EC50 [µM]	Compound
107	O=C(O)CCC(=O)O
54	O=C(O)CCC(=O)C(=O)O
